8 compounds from EP1831172B1, “SUBSTITUTED CARBAMIC ACID QUINOLIN-6-YL ESTERS USEFUL AS ACETYLCHOLINESTERASE INHIBITORS” (priority 2004, dated 2006) can be followed below.

Like-named read-outs stand apart in the source and are kept apart here.

Assay [1] concerns scopolamine induced deficit (dementia/amnesia) in mice. Put plainly: Single trial passive avoidance test, scopolamine induced amnesia. The assay is classed as in vivo. The settings on record: Mus musculus, 24 h. The protocol:
Single trial passive avoidance is widely used as experimental test to assess learning memory functions in rodents. […] Passive Avoidance Test (in vivo): Study was conducted in adult Swiss male mice of 3-4 months (wt. 20-25 g) which were kept in standard housing condition with 12h light and dark cycle. Food and water were available ad libitum. […] Passive avoidance test was studied by a computerized shuttle box (Columbus Instruments, Ohio, USA) provided with a software program PACS 30. The shuttle box comprises of two compartments, isolated by an automated door. […] Each mouse was placed in the bright compartment and on transfer into the dark compartment it was given an electric shock (0.5 mA for 5 s) through floor grid. Transfer of mice from bright to dark compartment was recorded as transfer latency time (TLT) in seconds. TLT was recorded in control and treated groups (1st Trial, acquisition) and then after 24 hours (2nd Trial, retention). An increase in the TLT on 2nd Trial (retention) as compared to 1st Trial (acquisition) was taken as the criterion for successful learning and memory (cognitive activity). Scopolamine induced deficit (Dementia): Scopolamine a muscarinic antagonist, known to produce impairment in cognitive functions (dementia) in human as well as in experimental animals, was used to produce deficit (no significant increase on 2nd trial) in passive avoidance learning. Scopolamine was administered 5 min prior to 1st trial. Reversal of scopolamine induced deficit i.e. significant increase in 2nd trial by test substance indicates potential anti-dementia activity. […]. Drug administration: Scopolamine was administered 5 min prior to 1st trial in test group. Each test compound was administered orally in dose of 20µmol/kg (1% aq. suspension in gum acacia) 1 hour prior to 2nd trial in scopolamine treated mice (n=5). Scopolamine control group received 1 ml/kg of vehicle (1% aq. suspension in gum acacia) orally. Scopolamine was administered 5 min prior to 1st trial in test group. […] Donepezil (10 mg/kg, po, as1% aqueous suspension in gum acacia) was used as standard drug and given 1 hour prior to 2nd trial in scopolamine treated mice. Statistical analysis: Mean values and standard error (S.E.) of mean were calculated for TLT and specific activity of AChE in the different regions of brain samples of each group. The significance of difference between the values of AChE activity and TLT between the groups was determined by one-way ANOVA test that followed by Dunnett's test. Table 4: Effect of the compounds on scopolamine induced amnesia in passive avoidance test

The next assay addresses T1, Acetylcholinesterase (Rattus norvegicus, UniProt P37136).
T1 construct: Aliquots of this supernatant was diluted in the ratio of 1:10 and used as a source of enzyme for the assay; from tissue; host or cells: whole brain of adult SD male rats; 10% homogenate with 1% Triton X-100, 100,000 x g supernatant
T1 sequence (P37136 32-614): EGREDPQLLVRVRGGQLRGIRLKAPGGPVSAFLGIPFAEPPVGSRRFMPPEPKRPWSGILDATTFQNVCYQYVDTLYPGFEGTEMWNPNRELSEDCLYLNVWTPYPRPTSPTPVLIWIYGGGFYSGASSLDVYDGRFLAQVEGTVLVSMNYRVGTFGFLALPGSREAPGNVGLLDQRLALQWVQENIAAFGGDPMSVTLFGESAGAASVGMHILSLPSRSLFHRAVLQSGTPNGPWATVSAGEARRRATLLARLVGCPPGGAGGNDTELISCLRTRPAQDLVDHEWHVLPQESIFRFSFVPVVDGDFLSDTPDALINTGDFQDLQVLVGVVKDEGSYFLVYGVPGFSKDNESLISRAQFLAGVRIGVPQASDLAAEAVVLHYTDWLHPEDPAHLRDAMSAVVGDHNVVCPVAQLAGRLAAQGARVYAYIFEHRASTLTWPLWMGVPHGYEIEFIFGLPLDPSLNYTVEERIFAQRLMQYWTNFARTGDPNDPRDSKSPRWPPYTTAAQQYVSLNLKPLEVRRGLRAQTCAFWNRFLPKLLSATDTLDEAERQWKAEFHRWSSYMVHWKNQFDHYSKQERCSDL
Put plainly: Inhibitive effect on acetylcholinesterase activity (Ellman assay, rat brain homogenate supernatant). The assay is classed as biochemical, rats. The settings on record: for % Cholinesterase Enzyme Activity: Control AChE activity = 0.014446 (µmol / mg of protein/min). The protocol: The study was conducted in adult SD male rats (200-250 g). Rats were perfused under mild ether anesthesia through heart with ice cooled normal saline (0.9% NaCl) to reduce blood-borne cholinesterase from brain. After perfusion whole brain was taken out. 10% (w/v) homogenate of brain was prepared first by homogenizing in Ultra-Turrax T25 homogenizer at a speed of 9500 rpm thrice giving intervals for few seconds in between the runs, with sodium phosphate buffer (30 mmol/lit, pH 7.0). Sodium phosphate buffer was taken in a volume half to the final volume required for 10% homogenate. 1% Triton X-100 (1% w/v in 30 mmol/lit. sodium phosphate buffer, pH 7.0) is then added in a volume to make the final volume for 10% homogenate, slowly while stirring the homogenate on ice.
Kinetic profile of the enzyme activity was studied spectrophotometrically at 412 nm at an interval of 15 s. Assay for each sample was run in duplicate and each experiment was performed thrice.
The specific activity of AChE is expressed in µmoles/min/mg of protein.
[…] Tacrine (1µmol) was used as standard AChE inhibitor (standard control). The AChE inhibitory activity was calculated on the basis of % decrease change from control values i.e. AChE acivity without incubation with any standard or test drug.
Bovine serum albumin (BSA) was used as standard in the concentration of 1 mg/ml. was estimated in the range of 0.01-0. mg/ml.

The mark [2] stands for this setting: % Learning in treated gp - % Learning in Scopolamine gp, test compound orally 20µmol/kg, Donepezil 10 mg/kg po, read-out: % Improvement in Learning.
The mark [3] stands for this setting: [2nd Trial - 1st trial/1st trial] x 100, scopolamine treated mice, test compound orally 20µmol/kg, Donepezil 10 mg/kg po, read-out: % Learning.

Turning to `CCCCCCCNC(=O)Oc1ccc2ncccc2c1` [1b, heptyl-carbamic acid quinolin-6-yl ester], the change in vivo at 20 µmol/kg in assay [1] (setting [2]) stood at 107%; in assay [1] (setting [3]) it was 140%.

For `O=C(Nc1ccccc1Cl)Oc1ccc2ncccc2c1` [1c, (2-chloro-phenyl)-carbamic acid quinolin-6-yl ester], the change in vivo at 20 µmol/kg in assay [1] (setting [2]) came to 123%; in assay [1] (setting [3]), 157%.

As for `O=C(Nc1cccc(Br)c1)Oc1ccc2c(c1)CCCN2` [2c, (3-bromo-phenyl)-carbamic acid 1,2,3,4-tetrahydro-quinolin-6-yl ester], the change in vivo at 20 µmol/kg in assay [1] (setting [2]) turned out to be 67.4%; in assay [1] (setting [3]), 101%.

Turning to `CCCCCCNC(=O)Oc1ccc2c(c1)CCCN2Cc1ccccc1` [2h, hexyl-carbamic acid 1-benzyl-1,2,3,4-tetrahydro-quinolin-6-yl ester], the results for the change in vivo at 20 µmol/kg in assay [1] (setting [2]) and in assay [1] (setting [3]) were 89.2% and 123%, respectively.

Turning to `O=C(Nc1ccccc1Cl)Oc1ccc2c(c1)CCCN2Cc1ccccc1` [2i, (2-chloro-phenyl)-carbamic acid 1-benzyl-1,2,3,4-tetrahydro-quinolin-6-yl ester], the figures for the change in vivo at 20 µmol/kg in assay [1] (setting [2]) and in assay [1] (setting [3]) were 89.6% and 123%, respectively. On Acetylcholinesterase, the IC50 (usually the point on the concentration scale where inhibition reaches its midpoint) was 3.31 µM. Moreover, the “% Anticholinesterase Enzyme Inhibition” value on Acetylcholinesterase (Conc. 0.1 µm) was 6.45%; at Acetylcholinesterase (Conc. 0.3 µm) it was 16.12%; on Acetylcholinesterase (Conc. 1 µm), 25.80%; on Acetylcholinesterase (Conc. 3 µm), 48.38%; on Acetylcholinesterase (Conc. 10 µm) it was 87.09%. The “Cholinesterase Enzyme Activity” value was 0.01351 µmol / mg of protein/min on Acetylcholinesterase (Conc. 0.1 µm); 0.01211 µmol / mg of protein/min at Acetylcholinesterase (Conc. 0.3 µm); 0.01071 µmol / mg of protein/min at Acetylcholinesterase (Conc. 1 µm); 0.007456 µmol / mg of protein/min at Acetylcholinesterase (Conc. 3 µm); 0.001864 µmol / mg of protein/min on Acetylcholinesterase (Conc. 10 µm). Moreover, the “% Cholinesterase Enzyme Activity” value on Acetylcholinesterase (Conc. 0.1 µm) is recorded as 93.54%; at Acetylcholinesterase (Conc. 0.3 µm), 83.87%; on Acetylcholinesterase (Conc. 1 µm), 74.19%; at Acetylcholinesterase (Conc. 3 µm), 51.61%; on Acetylcholinesterase (Conc. 10 µm) it was 12.90%.

On to `CN1CCCc2cc(OC(=O)Nc3ccc(Cl)c(C(F)(F)F)c3)ccc21` [2q, (4-chloro-3-trifluoromethyl-phenyl)-carbamic acid 1-methyl-1,2,3,4-tetrahydro-quinolin-6-yl ester], for which the change in vivo at 20 µmol/kg in assay [1] (setting [2]) is 76%; in assay [1] (setting [3]), 109%.

Consider `CN1CCCc2cc(OC(=O)Nc3ccc(Br)cc3)ccc21` [2r, (4-bromo-phenyl)-carbamic acid 1-methyl-1,2,3,4-tetrahydro-quinolin-6-yl ester], for which the change in vivo at 20 µmol/kg in assay [1] (po, read-out: % Improvement in Learning) was 62%; in assay [1] (po, read-out: % Learning), 95.6%.

Consider `COc1cc2c(cc1OC)C(=O)C(CC1CCN(Cc3ccccc3)CC1)C2` (centres unmarked) [DONEPEZIL, donepezil, reference compound], for which the figures for the change in vivo at 20 µmol/kg in assay [1] (setting [2]) and in assay [1] (setting [3]) were 134% and 168%, respectively.
